Data as given in ChEMBL document CHEMBL5252616, “Design, synthesis and biological evaluation of the tumor hypoxia-activated PROTACs bearing caged CRBN E3 ligase ligands” (Bioorg Med Chem, 2023).
Activity calls are given as the source filed them. The rule behind the calls is not given here.

Columns and labels:
PC-9 [1] = experiment: Antitumor activity against human PC-9 cells assessed as inhibition of cell viability incubated for 72 hrs under hypoxia condition by CCK8 assay; assay type: functional, cell-based; details: PC-9, 72 h
PC-9 [2] = experiment: Induction of apoptosis in human PC-9 cells assessed as necrotic cells at 0.1 uM incubated for 72 hrs under normoxia condition by Annexin V-FITC/ PI staining based flow cytometry (Rvb= 0.93%); assay type: functional
[3] = Prodrug conversion in hypoxia condition assessed as nitroreductase mediated drug degradation by measuring parent compound remaining in presence of NADPH as cofactor at 1 uM and measured after 60 mins by UPLC-MS/MS analysis; assay type: ADME; details: isolated protein, 1 h
PC-9 [4] = experiment: Induction of apoptosis in human PC-9 cells assessed as apoptotic cells at 0.1 uM incubated for 72 hrs under normoxia condition by Annexin V-FITC/ PI staining based flow cytometry (Rvb= 4.54%); assay type: functional
PC-9 [5] = experiment: Inhibition of cell migration in human PC-9 cells at 100 nM incubated for 24 hrs under hypoxia condition by imaging analysis; assay type: functional, cell-based
[6] = Prodrug conversion in hypoxia condition assessed as nitroreductase mediated active drug N-(4-((3-chloro-4-fluorophenyl)amino)-7-(((S)-tetrahydrofuran-3-yl)oxy)quinazolin-6-yl)-3-(2-(2-(2-((2-(2,6-dioxopiperidin-3-yl)-1,3-dioxoisoindolin-4-yl)oxy)ethoxy)ethoxy)ethoxy)propanamide formation in presence of NADPH as cofactor at 1 uM and measured after 60 mins by UPLC-MS/MS analysis; assay type: ADME; details: isolated protein, 1 h
[7] = tested on: Protein cereblon/Epidermal growth factor receptor (Homo sapiens), P00533+Q96SW2 [UNDEFINED MUTATION]; experiment: Protac activity at CRBN/EGFR deletion19 mutant in human PC-9 cells assessed as induction of EGFR degradation at 0.001 to 1 uM and measured after 24 hrs under normoxia condition by Western blot analysis; assay type: cell-based; details: dose 0.001-1 µM
PC-9 [8] = experiment: Induction of apoptosis in human PC-9 cells assessed as live cells at 0.1 uM incubated for 72 hrs under normoxia condition by Annexin V-FITC/ PI staining based flow cytometry (Rvb= 94.53%); assay type: functional
PC-9 [9] = experiment: Induction of apoptosis in human PC-9 cells assessed as late apoptotic cells at 0.1 uM incubated for 72 hrs under hypoxia condition by Annexin V-FITC/ PI staining based flow cytometry (Rvb= 4.73%); assay type: functional
[10] = tested on: Protein cereblon/Epidermal growth factor receptor (Homo sapiens), P00533+Q96SW2 [UNDEFINED MUTATION]; experiment: Protac activity at CRBN/EGFR deletion19 mutant in human PC-9 cells assessed as induction of EGFR degradation at 0.001 to 1 uM and measured after 24 hrs under hypoxia condition by Western blot analysis; assay type: cell-based; details: dose 0.001-1 µM
PC-9 [11] = experiment: Induction of apoptosis in human PC-9 cells assessed as late apoptotic cells at 0.1 uM incubated for 72 hrs under normoxia condition by Annexin V-FITC/ PI staining based flow cytometry (Rvb= 3.72%); assay type: functional
PC-9 [12] = experiment: Inhibition of cell migration in human PC-9 cells at 100 nM incubated for 24 hrs under normoxia condition by imaging analysis; assay type: functional, cell-based
PC-9 [13] = experiment: Induction of apoptosis in human PC-9 cells assessed as apoptotic cells at 0.1 uM incubated for 72 hrs under hypoxia condition by Annexin V-FITC/ PI staining based flow cytometry (Rvb= 9%); assay type: functional
PC-9 [14] = experiment: Induction of apoptosis in human PC-9 cells assessed as early apoptotic cells at 0.1 uM incubated for 72 hrs under hypoxia condition by Annexin V-FITC/ PI staining based flow cytometry (Rvb= 4.27%); assay type: functional
PC-9 [15] = experiment: Antitumor activity against human PC-9 cells assessed as inhibition of cell viability incubated for 72 hrs under normoxia condition by CCK8 assay; assay type: functional, cell-based; details: PC-9, 72 h
PC-9 [16] = experiment: Induction of apoptosis in human PC-9 cells assessed as early apoptotic cells at 0.1 uM incubated for 72 hrs under normoxia condition by Annexin V-FITC/ PI staining based flow cytometry (Rvb= 0.82%); assay type: functional
PC-9 [17] = experiment: Induction of apoptosis in human PC-9 cells assessed as live cells at 0.1 uM incubated for 72 hrs under hypoxia condition by Annexin V-FITC/ PI staining based flow cytometry (Rvb= 88.19%); assay type: functional
PC-9 [18] = experiment: Induction of apoptosis in human PC-9 cells assessed as necrotic cells at 0.1 uM incubated for 72 hrs under hypoxia condition by Annexin V-FITC/ PI staining based flow cytometry (Rvb= 2.81%); assay type: functional
[19] = tested on: Protein cereblon/Epidermal growth factor receptor (Homo sapiens), P00533+Q96SW2 [UNDEFINED MUTATION]; experiment: Protac activity at CRBN/EGFR deletion19 mutant in human PC-9 cells assessed as induction of EGFR degradation at 0.001 to 0.1 uM and measured after 24 hrs under normoxia condition by Western blot analysis; assay type: cell-based; details: dose 0.001-0.1 µM
[20] = tested on: Protein cereblon/Epidermal growth factor receptor (Homo sapiens), P00533+Q96SW2 [UNDEFINED MUTATION]; experiment: Protac activity at CRBN/EGFR deletion19 mutant in human PC-9 cells assessed as induction of EGFR degradation at 0.5 to 1 uM and measured after 24 hrs under normoxia condition by Western blot analysis; assay type: cell-based; details: dose 0.5-1 µM
[21] = tested on: Protein cereblon/Epidermal growth factor receptor (Homo sapiens), P00533+Q96SW2 [UNDEFINED MUTATION]; experiment: Protac activity at CRBN/EGFR deletion19 mutant in human PC-9 cells assessed as induction of EGFR degradation at 0.001 to 0.1 uM and measured after 24 hrs under hypoxia condition by Western blot analysis; assay type: cell-based; details: dose 0.001-0.1 µM
[22] = tested on: Protein cereblon/Epidermal growth factor receptor (Homo sapiens), P00533+Q96SW2 [UNDEFINED MUTATION]; experiment: Protac activity at CRBN/EGFR deletion19 mutant in human PC-9 cells assessed as induction of EGFR degradation at 0.5 to 1 uM and measured after 24 hrs under hypoxia condition by Western blot analysis; assay type: cell-based; details: dose 0.5-1 µM
[23] = tested on: Protein cereblon/Epidermal growth factor receptor (Homo sapiens), P00533+Q96SW2 [UNDEFINED MUTATION]; experiment: Protac activity at CRBN/EGFR deletion19 mutant in human PC-9 cells assessed as induction of EGFR degradation at 100 nM and measured after 24 hrs under normoxia condition by Western blot analysis; assay type: cell-based

Chain of Protein cereblon/Epidermal growth factor receptor (Homo sapiens), P00533+Q96SW2 [UNDEFINED MUTATION] (P00533 whole entry, looked up, stated change not applied): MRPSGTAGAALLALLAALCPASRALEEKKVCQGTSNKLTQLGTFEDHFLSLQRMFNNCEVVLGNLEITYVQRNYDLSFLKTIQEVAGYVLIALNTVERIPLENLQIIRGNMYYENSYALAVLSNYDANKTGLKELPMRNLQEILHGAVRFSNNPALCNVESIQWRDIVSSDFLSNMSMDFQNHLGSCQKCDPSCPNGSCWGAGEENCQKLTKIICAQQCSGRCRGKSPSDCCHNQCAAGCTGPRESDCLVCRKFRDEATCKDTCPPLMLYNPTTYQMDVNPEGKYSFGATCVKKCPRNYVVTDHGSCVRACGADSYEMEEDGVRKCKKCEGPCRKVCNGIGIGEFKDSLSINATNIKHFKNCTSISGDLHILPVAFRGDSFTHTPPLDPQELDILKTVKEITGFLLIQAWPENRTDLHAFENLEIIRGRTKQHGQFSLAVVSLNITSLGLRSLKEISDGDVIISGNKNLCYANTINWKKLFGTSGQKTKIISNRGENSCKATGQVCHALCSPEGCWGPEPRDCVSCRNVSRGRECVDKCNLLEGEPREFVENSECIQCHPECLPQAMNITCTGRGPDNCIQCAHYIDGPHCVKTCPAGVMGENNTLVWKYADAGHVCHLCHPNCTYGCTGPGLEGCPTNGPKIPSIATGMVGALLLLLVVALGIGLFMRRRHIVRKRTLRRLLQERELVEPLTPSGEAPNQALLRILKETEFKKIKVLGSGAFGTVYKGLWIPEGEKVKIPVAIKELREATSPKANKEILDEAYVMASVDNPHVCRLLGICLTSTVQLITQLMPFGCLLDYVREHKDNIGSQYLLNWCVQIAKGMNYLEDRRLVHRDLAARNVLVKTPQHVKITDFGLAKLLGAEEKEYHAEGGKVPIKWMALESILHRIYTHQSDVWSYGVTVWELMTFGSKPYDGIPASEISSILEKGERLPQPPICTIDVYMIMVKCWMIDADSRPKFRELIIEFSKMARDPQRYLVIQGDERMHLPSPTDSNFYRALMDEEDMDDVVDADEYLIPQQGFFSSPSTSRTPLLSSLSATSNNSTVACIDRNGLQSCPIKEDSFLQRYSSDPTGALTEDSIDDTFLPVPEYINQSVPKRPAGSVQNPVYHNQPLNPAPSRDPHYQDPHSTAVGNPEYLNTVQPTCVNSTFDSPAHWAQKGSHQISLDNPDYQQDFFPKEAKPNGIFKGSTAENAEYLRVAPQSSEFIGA
Chain of Protein cereblon/Epidermal growth factor receptor (Homo sapiens), P00533+Q96SW2 [UNDEFINED MUTATION] (Q96SW2 whole entry, looked up, stated change not applied): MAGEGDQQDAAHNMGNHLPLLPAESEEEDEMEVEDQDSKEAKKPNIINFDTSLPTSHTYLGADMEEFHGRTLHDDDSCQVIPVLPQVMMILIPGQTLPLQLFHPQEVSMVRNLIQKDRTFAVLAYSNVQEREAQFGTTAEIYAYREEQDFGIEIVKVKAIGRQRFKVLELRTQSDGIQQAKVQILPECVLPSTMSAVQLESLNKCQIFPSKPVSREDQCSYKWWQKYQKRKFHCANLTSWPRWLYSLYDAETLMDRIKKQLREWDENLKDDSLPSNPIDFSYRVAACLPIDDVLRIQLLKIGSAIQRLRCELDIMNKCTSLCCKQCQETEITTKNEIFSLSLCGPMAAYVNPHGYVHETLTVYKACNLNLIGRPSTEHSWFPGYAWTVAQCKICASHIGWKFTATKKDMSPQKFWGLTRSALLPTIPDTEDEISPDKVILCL

Compound	IC50 (PC-9 [1])	Activity (PC-9 [2])	Stability [3]	Activity (PC-9 [4])	inhibition (PC-9 [5])	Drug metabolism [6]	Activity (PC-9 [8])	Activity (PC-9 [9])	Activity (PC-9 [11])	inhibition (PC-9 [12])	Activity (PC-9 [13])	Activity (PC-9 [14])	IC50 (PC-9 [15])	Activity (PC-9 [16])	Activity (PC-9 [17])	Activity (PC-9 [18])	also measured
Cn1c(CN2C(=O)CCC(N3C(=O)c4cccc(OCCOCCOCCOCCC(=O)Nc5cc6c(Nc7ccc(F)c(Cl)c7)ncnc6cc5O[C@H]5CCOC5)c4C3=O)C2=O)cnc1[N+](=O)[O-] (stereo partly specified)	610 nM	2.18%	Unstable	22.11%	Active	Metabolite_Detected	75.71%	17.28%	11.21%	inactive	52.36%	35.08%	1100 nM	10.9%	44.8%	2.83%	Activity [7]: inactive; Activity [10]: Active
O=C(CCOCCOCCOCCOc1cccc2c1C(=O)N(C1CCC(=O)N(Cc3ccc([N+](=O)[O-])cc3)C1=O)C2=O)Nc1cc2c(Nc3ccc(F)c(Cl)c3)ncnc2cc1O[C@H]1CCOC1 (stereo partly specified)	1090 nM	1.1%	Unstable	6.26%	Active	Metabolite_Detected	92.63%	7.96%	2.98%	inactive	17.33%	9.37%	1920 nM	3.28%	80.78%	1.89%	Activity [19]: inactive; Activity [20]: Active; Activity [21]: Active; Activity [22]: Active
O=C1CCC(N2C(=O)c3cccc(OCCOCCOCCOCCC(=O)Nc4cc5c(Nc6ccc(F)c(Cl)c6)ncnc5cc4O[C@H]4CCOC4)c3C2=O)C(=O)N1 (stereo partly specified)	1300 nM												1300 nM				Activity [23]: Active
